One compound from patent publication US8354518B2, “HCV replicons containing NS5B from genotype 2B” (Merck Sharp & Dohme Corp., priority 2003, dated 2013) can be followed below.

Holding throughout (assay type): cell-based, Hepatitis C virus (HCV)
Experiment [1] has as its target Con1-2bM31I. Nature of the experiment: β-lactamase reporter replicon assay, Con1-2bM31I chimeric replicon. As to conditions: Con1-2bM31I replicon in MR2 (Huh7 derived) cells, two days with drug, percent of DMSO control, 4 parameter fit. How it is done:
(§1) Selection of persistently replication cells lines expressing β-lactamase, using bla:2b chimeric replicons each harboring a different mutation (N24S, M31I, I392L) defined in the Neo^r selection studies described above, was performed in the enhanced replication Huh7 derived cell line MR2. (Murray et al., J. of Virology, 77:2928-2935, 2003.) To generate RNA for transfection, plasmids were linearized by digestion of an XbaI site distal to the replicon sequences. RNA was generated using MEGAscript™ (Ambion, Austin, Tex.) and quantitated by UV absorbance.
(§2) MR2 was maintained in Dulbecco's modified Eagle's medium (DMEM) supplemented with 10% fetal bovine serum, nonessential amino acids, 2 mM GlutaMAX, and Penn/Strep (Invitrogen Corp., Carlsbad, Calif.). Cells were seeded the night prior to transfection at a density of 300,000 cells per well in a 6-well dish. A mixture of 5 μg RNA, 12 μl of DMRE-C (Invitrogen Corp., Carlsbad, Calif.), and 2 ml of Opti-Mem (Invitrogen Corp., Carlsbad, Calif.) media was prepared and allowed to sit for 10 minutes. During this time media was removed from the MR2 cells, cells were washed once with Opti-Mem, then the RNA:DMRE-C mixture was added dropwise, and incubated for ˜8 hours. Transfection media was removed by aspiration, and replaced with 2 ml DMEM.
For orientation: Replicon systems follow genome replication, usually without infectious particles.

Experiment [2] has as its target BK-2bM31I. As to the kind of experiment: β-lactamase reporter replicon assay, BK-2bM31I chimeric replicon. To be noted: BK-2bM31I replicon in MR2 (Huh7 derived) cells, two days with drug, percent of DMSO control, 4 parameter fit. How it is done: as §1, §2
Experiment [3] addresses BK NS5a268S-2bN24S. As to the kind of experiment: β-lactamase reporter replicon assay, BK NS5a268S-2bN24S chimeric replicon. As to conditions: BK NS5a268S-2bN24S replicon. How it is done:
(§3) Selection of persistently replication cells lines expressing β-lactamase, using bla:2b chimeric replicons each harboring a different mutation (N24S, M31I, I392L) defined in the Neo^r selection studies described above, was performed in the enhanced replication Huh7 derived cell line MR2. (Murray et al., J. of Virology, 77:2928-2935, 2003.) To generate RNA for transfection, plasmids were linearized by digestion of an XbaI site distal to the replicon sequences. RNA was generated using MEGAscript™ (Ambion, Austin, Tex.) and quantitated by UV absorbance. […]
(§4) The next morning cells were expanded into two T75 flasks and grown for an additional three days. A duplicate well for each replicon construct was analyzed for β-lactamase activity to verify that the transfection efficiency was >90%.
(§5) On day 4 cells from one flask were collected, counted, and seeded into a 96 well Cytostar plate at a density of 7,500 cells/well in the presence of 1 μM clavulonic acid. […] Simultaneously, the other flasks were analyzed for β-lactamase activity to verify both that activity from a non-replicating control sub-genomic replicon was undetectable, and establish the day 4 replication activity of the test replicons. […] Cells with drug were incubated for two days, and analyzed as described in Example 4. […]

Experiment [4] addresses BK-2b N24S/L392I. Nature of the experiment: β-lactamase reporter replicon assay, BK-2b N24S/L392I chimeric replicon. As to conditions: BK-2b N24S/L392I replicon. How it is done: as §3, §4, §5
Experiment [5] deals with bk:2B bla chimeric replicon bearing change at residue 24. Nature of the experiment: β-lactamase reporter replicon assay, bk:2B bla chimeric replicon with change at residue 24. To be noted: at the EC95 for 2′C-methyladenosine; replicon not robust enough for IC50 determination. How it is done: as §1
(§6) On day 4 cells from one flask were collected, counted, and seeded into a 96 well Cytostar plate at a density of 7,500 cells/well in the presence of 1 μM clavulonic acid. […] Simultaneously, the other flasks were analyzed for β-lactamase activity to verify both that activity from a non-replicating control sub-genomic replicon was undetectable, and establish the day 4 replication activity of the test replicons. […] Cells with drug were incubated for two days, and analyzed as described in Example 4.
(§7) Medium was removed by aspiration and cells were stained for 2 hours with CCF4-AM (Invitrogen Corp., Carlsbad, Calif.) in DMEM supplemented with 25 mM HEPES, pH 8.0. Fluorescence due to β-lactamase activity was measured through excitation at 405 nm, followed by measurement of the emission at 460 nm using a CytoFluor 4000 fluorescence plate reader. […]

The subject of experiment [6] is bk:2B bla chimeric replicon bearing change at residue 392. Nature of the experiment: β-lactamase reporter replicon assay, bk:2B bla chimeric replicon with change at residue 392. To be noted: at the EC95 for 2′C-methyladenosine; replicon not robust enough for IC50 determination. How it is done:
as §1, §6, §7

What is called EC50 is the concentration that produces a half-maximal response. With `C[C@@]1(O)[C@H](O)[C@@H](CO)O[C@H]1n1cnc2c(N)ncnc21` [2′C-methyladenosine], the EC50 in experiment [1] was determined as 0.407 µM; in experiment [2], 0.667 µM; in experiment [3] it was 0.982 µM; in experiment [4], 0.185 µM. Moreover, the “inhibition of limited replication” value in experiment [5] and in experiment [6] was “could be inhibited” throughout.
